# In patent publication US20200024574A1, “STEM CELL-DERIVED ASTROCYTES, METHODS OF MAKING AND METHODS OF USE” (MEMORIAL SLOAN-KETTERING CANCER CENTER, priority 2017, published 2020):
# “Also recorded” adds a separate entry of the source.
# B1: BMP4: gliogenic molecule, bone morphogenetic protein (protein, UniProt P12644 293-408, looked up)
# Bone morphogenetic protein 4: SPKHHSQRARKKNKNCRRHSLYVDFSDVGWNDWIVAPPGYQAFYCHGDCPFPLADHLNSTNHAIVQTLVNSVNSSIPKACCVPTELSAISMLYLDEYDKVVLKNYQEMVVEGCGCR
# Columns and labels:
# Type in all cases: cell-based, human
# NFIA-induced LTNSCs = test: Astrocyte differentiation of NFIA-induced LTNSCs after doxycycline removal with glial differentiation factors; conditions: for expression of GFAP after removing the expression of NFIA: NFIA exposed cells, especially in the absence of FGF2 (FIG. 4C)
# Description: Typically, regionally patterned neural stem cells are infected with lentiviral particles containing FUW-NFIA and FUW-M2-rtTA and induced with doxycycline (dox) one day after infection. Cells are kept in dox media for a minimum of 5 days and then switched to the astrocyte induction media (N2 media with 10 ng/ml HB-EGF (R&D Systems) and 10 ng/ml Leukemia inhibitory factor (Peprotech)) without dox for a minimum of 5 days. Glial progenitors and astrocytes can be isolated using CD44.
# (§1) For immunohistochemistry, cells were fixed in PBS containing 4% paraformaldehyde (EMS) for 10 minutes and permeabilized using PBS with 0.5% Triton-X for 5 minutes and stored in PBS with 0.2% Tween-20. The blocking solution contained 5% donkey serum in PBS with 0.2% Tween-20. Primary antibodies were diluted in the blocking solution and typically incubated overnight at 4 C. Secondary antibodies conjugated to Alexa 488, Alexa 555 or Alexa 647 (Thermo) were added to the cells and incubated for 30 minutes. Nuclei were identified by staining the cells with 4′,6-diamidino-2-phenylindole (DAPI, Thermo).
# LTNSCs = test: Differentiation of LTNSCs or neural rosettes (no NFIA induction) in media containing gliogenic molecules; conditions: short term, 14 days, no NFIA induction (FIG. 2B)
# Description: These cells were also TUJ1 negative implying their homogenous nature of being nearly 100% neural stem cells (FIG. 2A). […] In the FBS condition, the expression of gliogenic factors was assessed and expression of SOX9 and NFIA was more enriched when cultured with FBS compared to the other treatments (FIG. 3).
# as §1
# neurogenic NSCs [1] = test: Cell cycle analysis by FACS on NSCs treated with TGFβ1; conditions: TGFβ1 for 48 hours, FACS (FIG. 12L)
# Description: Cells were dissociated nuclei were isolated for cell cycle analysis. Propidium Iodine (250 ng/ml) was added to the cells and analyzed by FACS. A minimum of 10,000 events was analyzed per condition. Data acquired was imported and analyzed by the Flowjo software.
# neurogenic NSCs [2] = test: Immunofluorescence for NFIA and GFAP after TGFβ treatment followed by LIF medium; conditions: TGFβ followed by LIF-containing medium for 2 weeks (FIG. 12M)
# Description: as §1
# neurogenic NSCs [3] = test: Western blot analysis of NFIA in NSCs treated with TGFβ1; conditions: TGFβ1 for 7 days, Western blot (FIG. 12K)
Molecule,"GFAP expression (quantitative PCR) (NFIA-induced LTNSCs; 5 days dox then dox removal, +LIF versus +EGF/FGF2 (FIG. 10E))","efficiency of astrocyte differentiation (GFAP+ cells, AQP4-H2B-GFP reporter) after dox removal (NFIA-induced LTNSCs; LIF compared with BMP4 or FBS)",expression of GFAP after removing the expression of NFIA (NFIA-induced LTNSCs),fate of LTNSCs: neurons (TUJ1/βIII-Tubulin) versus GFAP+ astrocytes (LTNSCs),cells in the G1 phase of the cell cycle (neurogenic NSCs [1]),appearance of GFAP+ cells (neurogenic NSCs [2]),expression of NFIA (neurogenic NSCs [3])
"LIF: leukemia inhibitory factor, glial-promoting factor",strongly induced,most efficient in generating GFAP+ cells and activating the AQP4-H2B-GFP reporter,enhanced the expression of GFAP,became neurons rather than GFAP+ astrocytes; also recorded: increased expression of the neuronal marker TUJ1 rather than the astrocyte marker GFAP,–,–,–
TGFβ1: upstream activator of NFIA; transforming growth factor beta,–,–,–,–,enriched for cells in the G1 phase of the cell cycle,resulted in the appearance of GFAP+ cells,induced the expression of NFIA
B1,–,–,enhanced the expression of GFAP,became neurons rather than GFAP+ astrocytes; also recorded: increased expression of the neuronal marker TUJ1 rather than the astrocyte marker GFAP,–,–,–
